Experimental data as given in US12484581B2, “Agricultural or horticultural insecticide or animal ectoparasite or endoparasite control agent each comprising a condensed heterocyclic compound having a substituted cyclopropane-oxadiazole group or a salt thereof as active ingredient, and method for using the insecticide or the control agent” (NIHON NOHYAKU CO., LTD., priority 2019, dated 2025).

Key:
Type in all cases: in vivo
Dirofilaria immitis = assay: Larval motility assay on Dirofilaria immitis; conditions: 72 h, L1 stage larvae, 3 days, relative to DMSO only, read-out: percent motility inhibition
Experimental: Larval Motility Assay on Dirofilaria immitis
Five hundred L1 stage larvae of D. immitis were diluted in a predetermined conditioned medium and introduced into each well of a 96-well plate. DMSO diluted solutions of various compounds of the present invention were added at the final concentration of 50 ppm to the wells of the 96-well plate. The plate was allowed to stand for 3 days, and then larval motility was examined. The percent motility inhibition in the wells of each treatment was calculated relative to the wells of treatment with DMSO only.

Laodelphax striatellus = assay: whole plant or invertebrate; conditions: 192 h, rice seedlings dipped 30 seconds, 3rd-instar larvae, 8 days after inoculation, criteria of Test Example 1, read-out: insecticidal efficacy (corrected mortality rate)
Ctenocephalides felis = assay: whole plant or invertebrate; conditions: 50 ppm in bovine blood, oral via feeder, adults, following day, read-out: mortality rate
Haemonchus contortus = assay: Larval motility assay on Haemonchus contortus; conditions: 96 h, L1 stage larvae, 4 days, relative to DMSO only, read-out: percent motility inhibition
Experimental: Larval Motility Assay on Haemonchus contortus
DMSO diluted solutions of various compounds of the present invention were added at the final concentration of 50 ppm to the wells of a 96-well plate containing a predetermined conditioned medium. Twenty L1 stage larvae of H. contortus were introduced into each well of the 96-well plate. The plate was allowed to stand for 4 days, and then larval motility was examined. The percent motility inhibition in the wells of each treatment was calculated relative to the wells of treatment with DMSO only.

Plutella xylostella = assay: whole plant or invertebrate; conditions: 144 h, Chinese cabbage seedlings with laid eggs dipped about 30 seconds, 6 days after dip treatment, criteria of Test Example 1, read-out: insecticidal efficacy (corrected mortality rate)
Rhipicephalus sanguineus = assay: Assay for transdermal parasiticidal activity against nymphs of Rhipicephalus sanguineus; conditions: 100 ppm applied to inside of sample bottles, two days later
Description: DMSO diluted solutions of various compounds of the present invention were individually diluted to the final concentration of 100 ppm with an acetone/triton mixture and applied to the inside of vented sample bottles. After overnight drying, ten nymphs of R. sanguineus were introduced into each bottle, and the mortality rate was examined two days later. Aberrant adults were regarded as the dead.

SMILES	inhibition at 50 ppm (Dirofilaria immitis) [%]	mortality at 500 ppm (Laodelphax striatellus) [%]	mortality at 50 ppm (Ctenocephalides felis) [%]	inhibition at 50 ppm (Haemonchus contortus) [%]	mortality at 500 ppm (Plutella xylostella) [%]	parasiticidal activity (mortality rate) (Rhipicephalus sanguineus)
CCS(=O)(=O)c1cc(-c2noc(C3(C)CC3)n2)cnc1-c1nc2cc(C(F)(F)F)cnc2n1C [Compound 1-2]	≥ 50	100	≥ 50	≥ 50	100	
CCS(=O)(=O)c1cc(-c2noc(C3(C(F)(F)F)CC3)n2)cnc1-c1nc2cc(C(F)(F)F)cnc2n1C [Compound 1-4, 3-(5-ethylsulfonyl-6-(3-methyl-6-trifluoromethyl-3H-imidazo [4,5-b]pyridin-2-yl)pyridin-3-yl)-5-(1-trifluoromethylcyclopropyl)-1,2,4-oxadiazole]	≥ 50	100	≥ 50	≥ 50	100	parasiticidal activity
CCS(=O)(=O)c1cc(-c2noc(C3(c4ccccc4)CC3)n2)cnc1-c1nc2cc(C(F)(F)F)cnc2n1C [Compound 1-5]	≥ 50	100		≥ 50	100	parasiticidal activity
CCS(=O)(=O)c1cc(-c2noc(C3CC3C)n2)cnc1-c1nc2cc(C(F)(F)F)cnc2n1C (stereo not drawn) [Compound 1-6, 3-(5-ethylsulfonyl-6-(3-methyl-6-trifluoromethyl-3H-imidazo[4,5-b]pyridin-2-yl)pyridin-3-yl)-5-(2-methylcyclopropyl)-1,2,4-oxadiazole]	≥ 50	100		≥ 50	100	
CCS(=O)(=O)c1cc(-c2noc(C3(C(F)(F)F)CC3)n2)cnc1-c1nc2cc(C(F)(F)F)ncc2n1C [Compound 1-7]	≥ 50	100	≥ 50	≥ 50	100	
CCS(=O)(=O)c1cc(-c2noc(C3(C(F)(F)F)CC3)n2)cnc1-c1nc2cc([S+]([O-])C(F)(F)F)ccc2n1C (stereo not drawn) [Compound 1-8]		100			100	
